Assay results from PubChem BioAssay AID2060904 (Molecular Pharmacology Branch, DTP, NCI, 2025).

Test system: 349418-098-R-PDC complex spheroid viability
Test: Anticancer human tumor 349418-098-R-PDC patient-derived lung adenocarcinoma cell line growth inhibition [RAS]
Conditions: for viability, T/C: stronger effect = lower value
Procedure, shortened: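 Agents were tested in combination matrices in half-log decrements from a top concentration at or near clinical Cmax (10 microM if undetermined). Targets were multi-cell spheroids of tumour lines plus HUVEC and MSC stromal cells.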

[1] = curve of first compound, second compound 0.00316 µM
[2] = curve of first compound, second compound 0.01 µM
[3] = curve of first compound, second compound 0.0316 µM
[4] = curve of first compound, second compound 0.1 µM
[5] = curve of first compound, second compound 0.316 µM
[6] = curve of first compound, second compound 1 µM
[7] = second compound 0.00316 µM, first compound 0.0316 µM
[8] = second compound 0.00316 µM, first compound 0.1 µM
[9] = second compound 0.00316 µM, first compound 0.316 µM
[10] = second compound 0.00316 µM, first compound 1 µM
[11] = second compound 0.01 µM, first compound 0.0316 µM
[12] = second compound 0.01 µM, first compound 0.1 µM
[13] = second compound 0.01 µM, first compound 0.316 µM
[14] = second compound 0.01 µM, first compound 1 µM
[15] = second compound 0.0316 µM, first compound 0.0316 µM
[16] = second compound 0.0316 µM, first compound 0.1 µM
[17] = second compound 0.0316 µM, first compound 0.316 µM
[18] = second compound 0.0316 µM, first compound 1 µM
[19] = second compound 0.1 µM, first compound 0.0316 µM
[20] = second compound 0.1 µM, first compound 0.1 µM
[21] = second compound 0.1 µM, first compound 0.316 µM
[22] = second compound 0.1 µM, first compound 1 µM
[23] = second compound 0.316 µM, first compound 0.0316 µM
[24] = second compound 0.316 µM, first compound 0.1 µM
[25] = second compound 0.316 µM, first compound 0.316 µM
[26] = second compound 0.316 µM, first compound 1 µM
[27] = second compound 1 µM, first compound 0.0316 µM
[28] = second compound 1 µM, first compound 0.1 µM
[29] = second compound 1 µM, first compound 0.316 µM
[30] = second compound 1 µM, first compound 1 µM
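Also: spheroids exposed to compound for seven days before viability readout.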

Cc1nc(N2CCC3(CC2)COC(C)C3N)c(CO)nc1Sc1ccnc(N)c1Cl (configuration not stated) + CCn1c(-c2cccnc2C(C)OC)c2c3cc(ccc31)N1CCOC(CC(NC(=O)C(C(C)C)N(C)C(=O)C3(F)CCN(C(=O)C#CC(C)(C)N(C)C)CC3)C(=O)N3CCCC(N3)C(=O)OCC(C)(C)C2)C1
IC50 (curve of first compound, second compound 0.000949 µM): > 10000 nM
IC50 (curve of first compound, second compound 0.003 µM): > 10000 nM
IC50 (curve of first compound, second compound 0.00949 µM): > 10000 nM
IC50 (curve of first compound, second compound 0.03 µM): > 10000 nM
IC50 (curve of first compound, second compound 0.0949 µM): > 10000 nM
IC50 (curve of first compound, second compound 0.3 µM): > 10000 nM
viability, T/C (second compound 0.000949 µM, first compound 0.0316 µM): 97.9%
viability, T/C (second compound 0.000949 µM, first compound 0.1 µM): 86.4%
viability, T/C (second compound 0.000949 µM, first compound 0.316 µM): 102%
viability, T/C (second compound 0.000949 µM, first compound 1 µM): 103%
viability, T/C (second compound 0.000949 µM, first compound 3.16 µM): 101%
viability, T/C (second compound 0.000949 µM, first compound 10 µM): 89.5%
viability, T/C (second compound 0.003 µM, first compound 0.0316 µM): 102%
viability, T/C (second compound 0.003 µM, first compound 0.1 µM): 91.9%
viability, T/C (second compound 0.003 µM, first compound 0.316 µM): 119%
viability, T/C (second compound 0.003 µM, first compound 1 µM): 96.7%
viability, T/C (second compound 0.003 µM, first compound 3.16 µM): 97.1%
viability, T/C (second compound 0.003 µM, first compound 10 µM): 108%
viability, T/C (second compound 0.00949 µM, first compound 0.0316 µM): 103%
viability, T/C (second compound 0.00949 µM, first compound 0.1 µM): 106%
viability, T/C (second compound 0.00949 µM, first compound 0.316 µM): 106%
viability, T/C (second compound 0.00949 µM, first compound 1 µM): 99.8%
viability, T/C (second compound 0.00949 µM, first compound 3.16 µM): 118%
viability, T/C (second compound 0.00949 µM, first compound 10 µM): 90.5%
viability, T/C (second compound 0.03 µM, first compound 0.0316 µM): 119%
viability, T/C (second compound 0.03 µM, first compound 0.1 µM): 107%
viability, T/C (second compound 0.03 µM, first compound 0.316 µM): 99.3%
viability, T/C (second compound 0.03 µM, first compound 1 µM): 110%
viability, T/C (second compound 0.03 µM, first compound 3.16 µM): 115%
viability, T/C (second compound 0.03 µM, first compound 10 µM): 91.5%
viability, T/C (second compound 0.0949 µM, first compound 0.0316 µM): 98.5%
viability, T/C (second compound 0.0949 µM, first compound 0.1 µM): 98.9%
viability, T/C (second compound 0.0949 µM, first compound 0.316 µM): 105%
viability, T/C (second compound 0.0949 µM, first compound 1 µM): 87.9%
viability, T/C (second compound 0.0949 µM, first compound 3.16 µM): 101%
viability, T/C (second compound 0.0949 µM, first compound 10 µM): 100%
viability, T/C (second compound 0.3 µM, first compound 0.0316 µM): 83.7%
viability, T/C (second compound 0.3 µM, first compound 0.1 µM): 89.3%
viability, T/C (second compound 0.3 µM, first compound 0.316 µM): 100%
viability, T/C (second compound 0.3 µM, first compound 1 µM): 87.8%
viability, T/C (second compound 0.3 µM, first compound 3.16 µM): 101%
viability, T/C (second compound 0.3 µM, first compound 10 µM): 77.4%

O=C(c1ccc(F)c(F)c1Nc1ccc(I)cc1F)N1CC(O)([C@@H]2CCCCN2)C1 + C=CC(=O)N1CCN(c2nc(OCC3CCCN3C)nc3c(F)c(-c4nc(N)cc(C)c4C(F)(F)F)c(Cl)cc23)C(C)C1
IC50 [1]: < 3.16 nM
IC50 [2]: < 3.16 nM
IC50 [3]: < 3.16 nM
IC50 [4]: < 3.16 nM
IC50 [5]: < 3.16 nM
IC50 [6]: < 3.16 nM
viability, T/C (second compound 0.00316 µM, first compound 0.00316 µM): 39.9%
viability, T/C (second compound 0.00316 µM, first compound 0.01 µM): 32.3%
viability, T/C [7]: 28.5%
viability, T/C [8]: 12.9%
viability, T/C [9]: 5.88%
viability, T/C [10]: 4.12%
viability, T/C (second compound 0.01 µM, first compound 0.00316 µM): 37.7%
viability, T/C (second compound 0.01 µM, first compound 0.01 µM): 28.2%
viability, T/C [11]: 24.3%
viability, T/C [12]: 13.2%
viability, T/C [13]: 7.23%
viability, T/C [14]: 4.54%
viability, T/C (second compound 0.0316 µM, first compound 0.00316 µM): 39%
viability, T/C (second compound 0.0316 µM, first compound 0.01 µM): 32.8%
viability, T/C [15]: 28.5%
viability, T/C [16]: 15.1%
viability, T/C [17]: 6.99%
viability, T/C [18]: 4.79%
viability, T/C (second compound 0.1 µM, first compound 0.00316 µM): 36.4%
viability, T/C (second compound 0.1 µM, first compound 0.01 µM): 33.6%
viability, T/C [19]: 26.6%
viability, T/C [20]: 13.5%
viability, T/C [21]: 6.66%
viability, T/C [22]: 4.97%
viability, T/C (second compound 0.316 µM, first compound 0.00316 µM): 29.1%
viability, T/C (second compound 0.316 µM, first compound 0.01 µM): 32.5%
viability, T/C [23]: 32.4%
viability, T/C [24]: 12%
viability, T/C [25]: 7.61%
viability, T/C [26]: 5.27%
viability, T/C (second compound 1 µM, first compound 0.00316 µM): 42.3%
viability, T/C (second compound 1 µM, first compound 0.01 µM): 38.8%
viability, T/C [27]: 26.8%
viability, T/C [28]: 16.4%
viability, T/C [29]: 7.89%
viability, T/C [30]: 5%

CC(C)NCC(C(=O)N1CCN(c2ncnc3c2C(C)CC3O)CC1)c1ccc(Cl)cc1 (configuration not stated)
viability, T/C (compound 0.1 µM): 81.7% [middle of 4 runs]
viability, T/C (compound 0.316 µM): 62.2% [middle of 4 runs]
viability, T/C (compound 1 µM): 37.9% [middle of 4 runs]
viability, T/C (compound 3.16 µM): 18% [middle of 4 runs]
viability, T/C (compound 10 µM): 12.6% [middle of 4 runs]
IC50 (curve of compound): 476 nM [middle of 4 runs]

CC(Nc1ccc2c(c1)OCCn1cc(N3C(=O)OCC3C(F)F)nc1-2)C(N)=O (configuration not stated) + C=CC(=O)N1CCN(c2nc(OCC3CCCN3C)nc3c(F)c(-c4nc(N)cc(C)c4C(F)(F)F)c(Cl)cc23)C(C)C1
IC50 [1]: 72.4 nM
IC50 [2]: 149 nM
IC50 [3]: 195 nM
IC50 [4]: 114 nM
IC50 [5]: 57.8 nM
IC50 [6]: 129 nM
viability, T/C [7]: 66%
viability, T/C [8]: 44.4%
viability, T/C [9]: 23.6%
viability, T/C [10]: 16.7%
viability, T/C (second compound 0.00316 µM, first compound 3.16 µM): 14.8%
viability, T/C (second compound 0.00316 µM, first compound 10 µM): 9.03%
viability, T/C [11]: 82%
viability, T/C [12]: 57.6%
viability, T/C [13]: 36.1%
viability, T/C [14]: 17.8%
viability, T/C (second compound 0.01 µM, first compound 3.16 µM): 14.9%
viability, T/C (second compound 0.01 µM, first compound 10 µM): 8.95%
viability, T/C [15]: 91%
viability, T/C [16]: 69.8%
viability, T/C [17]: 36%
viability, T/C [18]: 17.1%
viability, T/C (second compound 0.0316 µM, first compound 3.16 µM): 12.2%
viability, T/C (second compound 0.0316 µM, first compound 10 µM): 13%
viability, T/C [19]: 46.2%
viability, T/C [20]: 58.9%
viability, T/C [21]: 30%
viability, T/C [22]: 19.3%
viability, T/C (second compound 0.1 µM, first compound 3.16 µM): 17.6%
viability, T/C (second compound 0.1 µM, first compound 10 µM): 11.4%
viability, T/C [23]: 55.8%
viability, T/C [24]: 44.9%
viability, T/C [25]: 30.3%
viability, T/C [26]: 19.4%
viability, T/C (second compound 0.316 µM, first compound 3.16 µM): 14%
viability, T/C (second compound 0.316 µM, first compound 10 µM): 10.7%
viability, T/C [27]: 61.2%
viability, T/C [28]: 57.3%
viability, T/C [29]: 28.4%
viability, T/C [30]: 24.4%
viability, T/C (second compound 1 µM, first compound 3.16 µM): 16.6%
viability, T/C (second compound 1 µM, first compound 10 µM): 11.3%
